According to US10464896B2, “Efflux-pump inhibitors and therapeutic uses thereof” (Basilea Pharmaceutica International AG, priority 2015, dated 2019):

Tests used:
Format in all cases: cell-based
[1] = system: P. aeruginosa PAO1; experiment: Antibacterial activity in combination with minocycline (growth inhibition); conditions: Pseudomonas aeruginosa, PAO1, compound at 50 μM; minocycline 8 μg/mL; OD625 23 h minus 1 h; read-out: residual growth of P. aeruginosa PAO1 (% of uninhibited control) with minocycline
In short: (§1)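 Test compound combined with fixed subinhibitory partner antibiotic: linezolid 128 μg/mL for either strain, minocycline 0.25 μg/mL (E. coli) or 8 μg/mL (P. aeruginosa), in caMHB shaken at 37 °C. Residual growth as % of inhibitor-free control, from OD625 at 23 h minus 1 h.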

[2] = system: E. coli ATCC25922; experiment: Antibacterial activity in combination with linezolid (growth inhibition); conditions: Escherichia coli, ATCC25922, compound at 50 μM; linezolid 128 μg/mL; OD625 23 h minus 1 h; read-out: residual growth of E. coli ATCC25922 (% of uninhibited control) with linezolid
Description: Antibacterial activity in combination with minocycline or with linezolid
Inhibition of growth was measured with E. coli ATCC25922 and P. aeruginosa PAO1 in a 96-well plate format. Cation-adjusted Müller-Hinton broth (caMHB) was inoculated with an overnight culture and incubated at 37° C. on a shaker until OD625 reached 0.6 to 0.7. Density was adjusted to OD600=0.5 by addition of caMHB. 35 μL of the suspension were diluted to 35 mL with caMHB and supplemented with minocycline at the subinhibitory doses of 0.25 μg/mL for E. coli and 8 μg/mL for P. aeruginosa or with linezolid at the subinhibitory dose of 128 μg/mL for E. coli and P. aeruginosa. Each well contained 1 μL of test compound in 100 μL caMHB with minocycline or with linezolid.
Plates were incubated at 37° C. on a plate shaker. OD625 was measured at 1 h, 6 h, and at 23 h.
The difference between OD at 23 h and at 1 h was taken as measure for cell density and compared to controls without inhibitor (i.e. uninhibited control). Results were expressed as residual growth (% of uninhibited control). Enhancement of minocycline or linezolid activity caused reduced residual growth.

[3] = system: E. coli ATCC25922; experiment: Antibacterial activity in combination with minocycline (growth inhibition); conditions: Escherichia coli, minocycline 0.25 μg/mL, OD625 23 h minus 1 h, read-out: residual growth of E. coli ATCC25922 (% of uninhibited control) with minocycline; for activity at 50 µM: ATCC25922, compound at 50 μM; for activity at 25 µM: ATCC25922, compound at 25 μM
In short: as §1

Structure (SMILES): Clc1ccccc1COc1ccc(CNCC2CCNCC2)cc1 [Example 1]
- activity at 50 µM [1]: ≤ 50%
- activity at 50 µM [2]: ≤ 50%

Structure (SMILES): COc1cc(C#N)ccc1COc1cccc(CNCC2CNC2)c1 [Example 26]
- activity at 50 µM [3]: ≤ 50%
- activity at 50 µM [1]: ≤ 50%

Structure (SMILES): Clc1ccc(COc2cccc(CCNCC3CNC3)c2)cc1 [Example 28]
- activity at 25 µM [3]: ≤ 10%
- activity at 50 µM [1]: ≤ 50%

Structure (SMILES): Brc1ncccc1COc1cccc(CNCC2CNC2)c1 [Example 48]
- activity at 50 µM [2]: ≤ 50%

Structure (SMILES): CC(C)(c1ccccc1)c1ccc(OCCNCC2CNC2)cc1 [Example 50]
- activity at 50 µM [3]: ≤ 50%
- activity at 50 µM [1]: ≤ 50%

Structure (SMILES): CC(C)(C)c1ccc(COc2ccc(CNCC3CCNCC3)cc2)cc1 [Example 57]
- activity at 25 µM [3]: ≤ 10%
- activity at 50 µM [1]: ≤ 50%

Structure (SMILES): Clc1ccc(-c2cccc(CNCC3CCNC3)c2)c(Br)c1 (stereo not shown) [Example 74]
- activity at 25 µM [3]: ≤ 10%
- activity at 50 µM [1]: ≤ 50%

Structure (SMILES): N#Cc1ccc(COc2ccc(CNCC3CNC3)cc2)cc1 [Example 76]
- activity at 50 µM [2]: ≤ 50%

Structure (SMILES): CS(=O)(=O)c1ccc(COc2ccc(CNCC3CNC3)cc2)c(Cl)c1 [Example 78]
- activity at 50 µM [2]: ≤ 50%

Structure (SMILES): Clc1ccc(Oc2ccc(CNCC3CCNC3)cc2)c(Br)c1 (stereo not shown) [Example 82]
- activity at 25 µM [3]: ≤ 10%
- activity at 50 µM [1]: ≤ 50%

Structure (SMILES): COC(=O)c1ccc(COc2ccc(CNCC3CNC3)cc2)c(Br)c1 [Example 87]
- activity at 50 µM [3]: ≤ 50%
- activity at 50 µM [1]: ≤ 50%

Structure (SMILES): Clc1ccc(Oc2ccccc2CNCC2CNC2)c(Br)c1 [Example 89]
- activity at 50 µM [3]: ≤ 50%
- activity at 50 µM [1]: ≤ 50%

Structure (SMILES): Clc1ccc(COc2ccc(CCNCC3CNC3)cc2)c(Br)c1 [Example 100]
- activity at 25 µM [3]: ≤ 10%
- activity at 50 µM [2]: ≤ 50%

Structure (SMILES): O=C(O)c1cc(CNCC2CNC2)cc(OCc2ccc(Cl)cc2Br)c1 [Example 110]
- activity at 50 µM [2]: ≤ 50%

Structure (SMILES): COCc1cc(CNCC2CNC2)cc(OCc2ccc(Cl)cc2Br)c1 [Example 124]
- activity at 25 µM [3]: ≤ 10%
- activity at 50 µM [1]: ≤ 50%

Structure (SMILES): FC(F)(F)c1cc(Cl)ccc1COc1cccc(CNCC2CNC2)c1 [Example 131]
- activity at 25 µM [3]: ≤ 10%
- activity at 50 µM [1]: ≤ 50%

Structure (SMILES): O=C(CNCC1CCNC1)c1cccc(OCc2ccc(Cl)cc2Br)c1 (stereo not shown) [Example 143]
- activity at 50 µM [2]: ≤ 50%

Structure (SMILES): O=C(Nc1ccc(CNCC2CCNC2)cc1Cl)c1ccc(C(F)(F)F)cc1C(F)(F)F (stereo not shown) [Example 160]
- activity at 50 µM [2]: ≤ 50%

Structure (SMILES): O=C(Nc1ccc(CNCC2CNC2)cc1Cl)c1ccc(Cl)cc1C(F)(F)F [Example 161]
- activity at 50 µM [2]: ≤ 50%

Structure (SMILES): Clc1ccc(NCc2cccc(CNCC3CNC3)c2)c(Br)c1 [Example 170]
- activity at 25 µM [3]: ≤ 10%
- activity at 50 µM [1]: ≤ 50%

Structure (SMILES): Clc1ccc(COCc2cccc(CNCC3CNC3)c2)c(Br)c1 [Example 173, N-(azetidin-3-ylmethyl)-1-[3-[(2-bromo-4-chloro-phenyl)methoxymethyl]phenyl]methanamine]
- activity at 25 µM [3]: ≤ 10%
- activity at 50 µM [1]: ≤ 50%

Structure (SMILES): Clc1ccc(COc2cccc(CNCC3CNC3)c2)c(Cl)c1 [Example 177]
- activity at 25 µM [3]: ≤ 10%
- activity at 50 µM [1]: ≤ 50%

Structure (SMILES): Ic1cccc(COc2cccc(CNCC3CNC3)c2)c1 [Example 219]
- activity at 25 µM [3]: ≤ 10%
- activity at 50 µM [1]: ≤ 50%

Structure (SMILES): Ic1cccc(COc2cccc(CNCC3CCNC3)c2)c1 (stereo not shown) [Example 221]
- activity at 25 µM [3]: ≤ 10%
- activity at 50 µM [1]: ≤ 50%

Structure (SMILES): CC(C)(C)c1ccc(COc2cccc(CNCC3CNC3)c2)cc1 [Example 222]
- activity at 25 µM [3]: ≤ 10%
- activity at 50 µM [1]: ≤ 50%

Structure (SMILES): CC(C)(C)c1ccc(COc2cccc(CNC3CCNCC3)c2)cc1 [Example 223]
- activity at 25 µM [3]: ≤ 10%
- activity at 50 µM [1]: ≤ 50%

Structure (SMILES): C[N+](C)(CC(=O)O)Cc1cc(CNCC2CNC2)cc(OCc2ccc(Cl)cc2Br)c1 [Example 232]
- activity at 50 µM [2]: ≤ 50%

Structure (SMILES): CN(CC(=O)O)Cc1cc(CNCC2CNC2)cc(OCc2ccc(Cl)cc2Br)c1 [Example 244]
- activity at 50 µM [2]: ≤ 50%

Structure (SMILES): C=CCOc1cc(/C=C/c2cccc(OC)c2)cc(CNCC2CNC2)c1 [Example 276]
- activity at 25 µM [3]: ≤ 10%
- activity at 50 µM [1]: ≤ 50%

Structure (SMILES): CC(C)(C)c1ccc(COc2cc(CNCC3CNC3)cc(OCCN3CCOCC3)c2)cc1 [Example 277]
- activity at 25 µM [3]: ≤ 10%
- activity at 50 µM [1]: ≤ 50%

Structure (SMILES): C=CCOc1cc(/C=C/c2ccccc2OC)cc(CNCC2CNC2)c1 [Example 285]
- activity at 25 µM [3]: ≤ 10%
- activity at 50 µM [1]: ≤ 50%

Structure (SMILES): C[N+]1(C)CC(OCc2cc(CNCC3CNC3)cc(OCc3ccc(Cl)cc3Br)c2)CC1C(=O)O (stereo not shown) [Example 288]
- activity at 50 µM [3]: ≤ 50%
- activity at 50 µM [1]: ≤ 50%

Structure (SMILES): N#Cc1ccc(/C=C/c2cccc(CNCC3CCNC3)c2)c(C(F)(F)F)c1 (stereo not shown) [Example 314]
- activity at 25 µM [3]: ≤ 10%
- activity at 50 µM [1]: ≤ 50%

Structure (SMILES): C=CCOc1cc(/C=C/c2cnccc2C#N)cc(CNCC2CCNC2)c1 (stereo not shown) [Example 316]
- activity at 25 µM [3]: ≤ 10%
- activity at 50 µM [1]: ≤ 50%

Structure (SMILES): C=CCOc1cc(/C=C/c2cccs2)cc(CNCC2CCNC2)c1 (stereo not shown) [Example 319]
- activity at 25 µM [3]: ≤ 10%
- activity at 50 µM [1]: ≤ 50%

Structure (SMILES): C=CCOc1cc(/C=C/c2ccsc2)cc(CNCC2CCNC2)c1 (stereo not shown) [Example 320]
- activity at 25 µM [3]: ≤ 10%
- activity at 50 µM [1]: ≤ 50%

Structure (SMILES): C=CCOc1cc(/C=C/c2ccc(OC)cc2OC)cc(CNCC2CNC2)c1 [Example 323]
- activity at 25 µM [3]: ≤ 10%
- activity at 50 µM [1]: ≤ 50%

Structure (SMILES): CC(C)COc1cc(/C=C/c2cccc(C(N)=O)c2)cc(CNCC2CCNC2)c1 (stereo not shown) [Example 331]
- activity at 25 µM [3]: ≤ 10%
- activity at 50 µM [1]: ≤ 50%

Structure (SMILES): C=CCOc1cc(/C=C/c2nc(C(C)C)cs2)cc(CNCC2CCNC2)c1 (stereo not shown) [Example 353]
- activity at 25 µM [3]: ≤ 10%
- activity at 50 µM [1]: ≤ 50%

Structure (SMILES): C=CCOc1cc(/C=C/c2ccc(Cl)cc2Br)cc(CNC(=O)[C@H]2CCNC2)c1 [Example 366]
- activity at 25 µM [3]: ≤ 10%
- activity at 50 µM [1]: ≤ 50%

Structure (SMILES): c1cncc(COc2cc(CNCC3CCNC3)cc(OCCc3ccncc3)c2)c1 (stereo not shown) [Example 427]
- activity at 50 µM [2]: ≤ 50%

Structure (SMILES): c1cncc(COc2cc(CNCC3CNC3)cc(OCCN3CCOCC3)c2)c1 [Example 428]
- activity at 50 µM [2]: ≤ 50%

Structure (SMILES): C(=C\c1cc(CNCC2CNC2)cc(OCCN2CCOCC2)c1)/c1cccnc1 [Example 442]
- activity at 50 µM [2]: ≤ 50%

Structure (SMILES): C=CCOc1cc(/C=C/c2ccc(Cl)cc2Br)cc(C(=O)NCC(=O)NCC2CNC2)c1 [Example 445]
- activity at 25 µM [3]: ≤ 10%
- activity at 50 µM [1]: ≤ 50%

Structure (SMILES): C=CCOc1cc(/C=C/c2ccc(Cl)cc2Br)cc(C(=O)NCCN(CC2CNC2)CC2CNC2)c1 [Example 447]
- activity at 25 µM [3]: ≤ 10%
- activity at 50 µM [2]: ≤ 50%

Structure (SMILES): C=CCOc1cc(/C=C/c2cncc(C(=O)O)c2)cc(CNCC2CCNC2)c1 (stereo not shown) [Example 449]
- activity at 50 µM [2]: ≤ 50%

Structure (SMILES): C=CCOc1cc(/C=C/c2ccc(N)cc2)nc(CNCC2CCNC2)c1 (stereo not shown) [Example 475]
- activity at 50 µM [3]: ≤ 50%
- activity at 50 µM [1]: ≤ 50%

Structure (SMILES): N#Cc1cncc(/C=C/c2cc(OCc3ccccn3)cc(CNCC3CCNC3)n2)c1 (stereo not shown) [Example 482]
- activity at 50 µM [2]: ≤ 50%

Structure (SMILES): N#Cc1cncc(/C=C/c2cc(CNCC3CCNC3)cc(OCCN3CCOCC3)c2)c1 (stereo not shown) [Example 484, 5-[(E)-2-[3-(2-morpholinoethoxy)-5-[(pyrrolidin-3-ylmethylamino)methyl]phenyl]vinyl]pyridine-3-carbonitrile]
- activity at 50 µM [2]: ≤ 50%

Structure (SMILES): N#Cc1cncc(/C=C/c2cc(CNCC3CCNC3)cc(OCc3n[nH]c(=O)o3)c2)c1 (stereo not shown) [Example 491, 5-[(E)-2-[3-[(2-oxo-3H-1,3,4-oxadiazol-5-yl)methoxy]-5-[(pyrrolidin-3-ylmethylamino)methyl]phenyl]vinyl]pyridine-3-carbonitrile]
- activity at 50 µM [2]: ≤ 50%

Structure (SMILES): CC(C)COc1cc(CNCC2CCNC2)cc(S(=O)(=O)Cc2cccnc2)c1 (stereo not shown) [Example 495]
- activity at 50 µM [2]: ≤ 50%

Structure (SMILES): CC(C)COc1cc(/C=C/c2cccnc2)cc(C(=O)CNCC2CCNC2)c1 (stereo not shown) [Example 502, 1-[3-isobutoxy-5-[(E)-2-(3-pyridyl)vinyl]phenyl]-2-(pyrrolidin-3-ylmethylamino)ethanone]
- activity at 50 µM [1]: ≤ 50%
- activity at 50 µM [2]: ≤ 50%

Structure (SMILES): O=C(NCCN(CC1CNC1)CC1CNC1)c1cc(OCCc2ccncc2)cc(OCc2cccnc2)c1 [Example 506, N-[2-[bis(azetidin-3-ylmethyl)amino]ethyl]-3-[2-(4-pyridyl)ethoxy]-5-(3-pyridylmethoxy)benzamide]
- activity at 50 µM [2]: ≤ 50%

Structure (SMILES): O=C(NCCN(CC1CNC1)CC1CNC1)c1cc(CNC(=O)c2cccnc2)cc(OCCc2ccncc2)c1 [Example 507, N-[[3-[2-[bis(azetidin-3-ylmethyl)amino]ethylcarbamoyl]-5-[2-(4-pyridyl)ethoxyl]phenyl]methyl]pyridine-3-carboxamide]
- activity at 50 µM [1]: ≤ 50%
- activity at 50 µM [2]: ≤ 50%

Structure (SMILES): O=C(NCc1cc(CNCC2CNC2)cc(OCCc2ccncc2)c1)c1cccnc1 [Example 510]
- activity at 50 µM [1]: ≤ 50%
